Source: BindingDB's records for doi:10.1016/j.ejmech.2018.07.023 (University of Copenhagen, 2018)
*1 amine or outer side, *2 acyl side, *3 side chain or, on linkers, in order; H or OH if unused. Where a SMILES comes first, the peptide text is derived from it. Bridges are numbered along the chain shown (N, C = ends). [ ]: non-standard residue; d: D form. Leu(3R-O(AcLeu(3R-OH))) = CC(=O)N[C@H](C(=O)O[C@H](C(C)C)[C@H](N)C(=O)O)[C@H](O)C(C)C; X1 = CC(C)[C@@H](O[*:3])[C@H](N[*:1])C(=O)[*:2]; NMeT = CN[C@H](C(=O)O)[C@@H](C)O; dPhLac = O=C(O)[C@H](O)Cc1ccccc1; NMeA = CN[C@@H](C)C(=O)O; NMeDha = C=C(NC)C(=O)O

Experiment: Inhibition of recombinant rat Gi coupled mGlu2 receptor expressed in CHO cells assessed as suppression of L-glutamate-induced decrease in cAMP level pretreated for 1 hr followed by L-glutamate/forskolin addition and measured after 30 mins by FRET assay

| Structure (SMILES) | IC50 [µM] |
| --- | --- |
| C=C1C(=O)N[C@@H](C)C(=O)N(C)[C@@H](C)C(=O)N[C@@H]([C@H](OC(=O)[C@@H](NC(C)=O)[C@H](O)C(C)C)C(C)C)C(=O)N(C)[C@@H]([C@@H](C)OC)C(=O)O[C@@H](C)[C@H](NC(C)=O)C(=O)O[C@H](Cc2ccccc2)C(=O)N1C | > 50 |
| C=C1C(=O)N[C@@H](C)C(=O)N(C)[C@@H](C)C(=O)N[C@@H]([C@H](OC(=O)[C@@H](NC(=O)c2ccccc2)[C@H](O)C(C)C)C(C)C)C(=O)N(C)[C@@H]([C@@H](C)OC)C(=O)O[C@H](C)[C@H](NC(C)=O)C(=O)O[C@H](Cc2ccccc2)C(=O)N1C | > 100 |
| C=C1C(=O)N[C@@H](C)C(=O)N(C)[C@@H](C)C(=O)N[C@@H]([C@H](OC(=O)[C@@H](NC(C)=O)[C@H](O)C(C)C)C(C)C)C(=O)N(C)[C@@H]([C@@H](C)OC)C(=O)O[C@H](C)[C@H](NC(C)=O)C(=O)O[C@H](Cc2ccccc2)C(=O)N1C | > 100 |
| CO[C@H](C)[C@H]1C(=O)O[C@H](C)[C@H](NC(C)=O)C(=O)O[C@H](CC(C)C)C(=O)N(C)[C@H](CO)C(=O)N[C@@H](C)C(=O)N(C)[C@@H](C)C(=O)N[C@@H]([C@H](OC(=O)[C@@H](NC(C)=O)[C@H](O)C(C)C)C(C)C)C(=O)N1C | > 100 |

The next lines start with the values.

| IC50 [µM] | Structure (SMILES) |
| --- | --- |
| > 50 | C=C1C(=O)N[C@@H](C)C(=O)N(C)[C@@H](C)C(=O)N[C@@H]([C@H](OC(=O)[C@@H](NC(=O)CCCCC)[C@H](O)C(C)C)C(C)C)C(=O)N(C)[C@@H]([C@@H](C)OC)C(=O)O[C@H](C)[C@H](NC(C)=O)C(=O)O[C@H](Cc2ccccc2)C(=O)N1C |
| > 100 | C=C1C(=O)N[C@@H](C)C(=O)N(C)[C@@H](C)C(=O)N[C@@H]([C@H](OC(=O)[C@@H](NC(C)=O)[C@H](O)C(C)C)C(C)C)C(=O)N(C)[C@@H]([C@@H](C)OC)C(=O)O[C@H](C)[C@H](NC(C)=O)C(=O)O[C@H](CC(C)C)C(=O)N1C |
| > 50 | C=C1C(=O)N[C@@H](C)C(=O)N(C)[C@@H](C)C(=O)N[C@@H]([C@H](OC(=O)[C@@H](NC(C)=O)[C@H](O)C(C)C)C(C)C)C(=O)N(C)[C@@H]([C@@H](C)OC)C(=O)OC[C@H](NC(C)=O)C(=O)O[C@H](Cc2ccccc2)C(=O)N1C |
| > 50 | C=C1C(=O)N[C@@H](C)C(=O)N(C)[C@@H](C)C(=O)N[C@@H]([C@H](OC(=O)[C@@H](NC(C)=O)[C@H](O)C(C)C)C(C)C)C(=O)N(C)[C@@H]([C@@H](C)OC)C(=O)O[C@H](C(C)C)[C@H](NC(C)=O)C(=O)O[C@H](Cc2ccccc2)C(=O)N1C (Ac-[X1][dPhLac][NMeDha]A[NMeA][Leu(3R-O(AcLeu(3R-OH)))][NMeT](Me); ester 1-C) |
